The target in one test is T1, phospho p-38 alpha kinase (Homo sapiens, UniProt Q16539).
T1 construct: purchased Panvera
T1 sequence (Q16539 whole entry): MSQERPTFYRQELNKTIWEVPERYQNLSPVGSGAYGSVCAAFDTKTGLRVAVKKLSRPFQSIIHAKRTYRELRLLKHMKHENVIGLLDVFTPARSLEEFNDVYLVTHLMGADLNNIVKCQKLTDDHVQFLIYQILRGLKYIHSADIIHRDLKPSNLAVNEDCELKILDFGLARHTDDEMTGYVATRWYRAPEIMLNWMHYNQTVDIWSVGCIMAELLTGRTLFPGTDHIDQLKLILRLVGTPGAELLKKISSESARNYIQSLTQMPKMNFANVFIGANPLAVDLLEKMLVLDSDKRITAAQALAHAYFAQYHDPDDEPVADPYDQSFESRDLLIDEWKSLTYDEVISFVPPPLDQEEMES
Briefly: P-38 alpha kinase assay (spectrophotometric, pyruvate kinase/lactate dehydrogenase coupled). It counts as biochemical. As to conditions: Table 3; rates from […] to 2 h time frame.
In general, IC50 refers to the concentration that gives 50% inhibition. Read a low IC50 as inhibition by little substance. In turn, `CC(C)(C)c1cc(NC(=O)Nc2cccc(Cl)c2)n(-c2cccc(CN)c2)n1` [Example 386, 1-{1-[3-(aminomethyl)phenyl]-3-t-butyl-1H-pyrazol-5-yl}-3-(3-chloro-phenyl)urea] registered a half-maximal inhibitory concentration (IC50) of 114 nM.
In turn, `CC(C)(C)c1cc(NC(=O)Nc2cccc(C(F)(F)F)c2)n(-c2cccc(CCN)c2)n1` [Example 380, 1-{1-[3-(2-aminoethyl)phenyl]-3-t-butyl-1H-pyrazol-5-yl}-3-[3-(trifluoromethyl)phenyl]urea] yielded an IC50 of 2000 nM.
`CC(C)(C)c1cc(NC(=O)Nc2ccc(Cl)cc2)n(-c2cccc(C(N)=O)c2)n1` [Example 393, 1-[3-t-butyl-1-(3-carbamoylphenyl)-1H-pyrazol-5-yl]-3-(4-chlorophenyl)urea]: half-maximal inhibition (IC50) required 400 nM.
Take `C#CC(O)c1ccc(-n2nc(C(C)(C)C)cc2NC(=O)Nc2cccc3ccccc23)cc1` (stereo not shown) [Example 464, 1-{3-t-butyl-1-[4-(1-hydroxyprop-2-ynyl)phenyl]-1H-pyrazol-5-yl}-3-(naphthalen-1-yl)urea]: the IC50 stood at 19 nM.
Still for that read-out and setting: the same measure for `CC(C)(C)c1cc(NC(=O)Nc2ccc3c(c2)OCO3)n(-c2cccc(CO)c2)n1` [Example 397, 1-(benzo[d][1,3]dioxol-5-yl)-3-(3-t-butyl-1-(3-(hydroxymethyl)phenyl)-1H -pyrazol-5-yl)urea]: 40 nM; for `CC(C)(C)c1cc(NC(=O)Nc2ccccc2)n(-c2ccc(O)cc2)n1` [Example 522, 1-(3-t-butyl-1-(4-hydroxyphenyl)-1H-pyrazol-5-yl)-3-phenylurea]: 780 nM.
For the compound `CN(C)CCc1cccc(-n2nc(C(C)(C)C)cc2NC(=O)Nc2cccc(Cl)c2Cl)c1` [Example 383, 1-(3-t-butyl-1-{3-[2-(dimethylamino)ethyl]phenyl}-1H-pyrazol-5-yl)-3-(2,3-di-chlorophenyl)urea], the IC50 amounted to 100 nM.
`COc1cccc(NC(=O)Nc2cc(C(C)(C)C)nn2-c2cccc(CN)c2)c1` [Example 388, 1-{1-[3-(aminomethyl)phenyl]-3-t-butyl-1H-pyrazol-5-yl}-3-(3-methoxy-phenyl)urea] had an IC50 of 1650 nM.
`O=C(Nc1ccc(Cl)cc1)Nc1cc(-c2ccccc2)nn1-c1ccc(CO)cc1` [Example 434, 1-(4-chlorophenyl)-3-{1-[4-(hydroxymethyl)phenyl]-3-phenyl-1H-pyrazol-5-yl}-urea]: the IC50 was 1900 nM.
`CN1CCN(C(=O)NCc2cccc(-n3nc(C(C)(C)C)cc3NC(=O)Nc3cccc4ccccc34)c2)CC1` [Example 492, 1-(3-t-butyl-1-{3-[(1-methylpiperazine-4-carboxamido)methyl]phenyl)-1H-pyrazol-5-yl)-3-(naphthalen-1-yl)urea] returned a half-maximal inhibitory concentration (IC50) of 40 nM.
On to `Cc1cc(NC(=O)Nc2cccc3ccccc23)n(-c2cccc(C(C)(C)O)c2)n1` [Example 444, 1-{1-[3-(2-hydroxypropan-2-yl)phenyl]-3-methyl-1H-pyrazol-5-yl}-3-(naphthalen-1-yl)urea], for which the half-maximal inhibitory concentration (IC50) was 5000 nM.
The compound `COc1cccc(-n2nc(-c3ccccc3)cc2NC(=O)Nc2cccc(Br)c2)c1` [Example 332] yielded a half-maximal inhibitory concentration (IC50) of 50 nM.
On to `CCOC(=O)C(C)Cc1ccc(-n2nc(C(C)(C)C)cc2NC(=O)Nc2ccc(Cl)cc2)cc1` (stereo not shown) [Example 429, ethyl 3-(4-{3-t-butyl-5-[3-(4-chlorophenyl)ureido]-1H-pyrazol-1-yl}phenyl)-2-methylpropanoate], for which half-maximal inhibition (IC50) was put at 1070 nM.
`COc1cccc(-n2nc(C(F)(F)F)cc2NC(=O)Nc2cccc3ccccc23)c1` [Example 342, 1-(3-(trifluoromethyl)-1-(3-methoxyphenyl)-1H-pyrazol-5-yl)-3-(naphthalen-1-yl)urea]: the IC50 was 1000 nM.
Consider `CC(C)(C)c1cc(NC(=O)Nc2ccc(Cl)cc2)n(-c2cccc(CN3C(=O)C(=O)NS3(=O)=O)c2)n1` [Example 483, 1-{5-t-butyl-2-[3-(1,1,3,4-tetraoxo-1λ^6-[1,2,5]thiadiazolidin-2-ylmethyl)phenyl]-2H-pyrazol-3-yl}-3-(4-chlorophenyl)urea], for which the IC50 came out at 270 nM.
The compound `O=C(Nc1cccc(C(F)(F)F)c1)Nc1cc(-c2ccccc2)nn1-c1cccc(CO)c1` [Example 457, 1-{3-phenyl-1-[3-(hydroxymethyl)phenyl]-1H-pyrazol-5-yl}-3-(3-trifluoromethylphenyl)urea] had an IC50 of 1100 nM.
The same measure, in the same setting: with `CC(C)(C)c1cc(NC(=O)Nc2cccc(Cl)c2Cl)n(-c2cccc(C(=O)O)c2)n1` [Example 477, 3-{3-t-butyl-5-[3-(2,3-dichlorophenyl)ureido]-1H-pyrazol-1-yl}benzoic acid] the figure was 42 nM.

The test is the same for the next values; noted with them: read-out: % Inhibition @ concentration, Table 3; at 0.1 uM.
In the case of `CC(C)(C)c1cc(NC(=O)Nc2ccc(Cl)cc2)n(-c2cccc(CN)c2)n1` [Example 390, 1-{1-[3-(aminomethyl)phenyl]-3-t-butyl-1H-pyrazol-5-yl}-3-(4-chloro-phenyl)urea], the inhibition at 0.1 µM was 24%.
With `CC(C)c1cc(NC(=O)Nc2cccc3ccccc23)n(-c2cccc(C(C)(C)O)c2)n1` [Example 436, 1-{1-[3-(2-hydroxypropan-2-yl)phenyl]-3-isopropyl-1H-pyrazol-5-yl}-3-(naphthalen-1-yl)urea], the inhibition at 0.1 µM came out at 16%.

Staying with this test, now noted: read-out: % Inhibition @ concentration, Table 3; at 1 uM.
For `CC(C)(O)c1cccc(-n2nc(-c3ccccc3)cc2NC(=O)Nc2cccc3ccccc23)c1` [Example 432, 1-{1-[3-(2-hydroxypropan-2-yl)phenyl]-3-phenyl-1H-pyrazol-5-yl}-3-(naphthalen-1-yl)urea], the inhibition at 1 µM was 9%.
As to `Cc1cc(NC(=O)Nc2cccc(Cl)c2Cl)n(-c2ccc(CO)cc2)n1` [Example 450, 1-(2,3-dichlorophenyl)-3-{1-[4-(hydroxymethyl)phenyl]-3-methyl-1H pyrazol-5-yl)urea], the inhibition at 1 µM came to 89%.
Regarding `CC(C)(C)c1cc(NC(=O)Nc2ccc(Cl)cc2)n(-c2cccc(CN)c2)n1` [Example 390, 1-{1-[3-(aminomethyl)phenyl]-3-t-butyl-1H-pyrazol-5-yl}-3-(4-chloro-phenyl)urea], the inhibition at 1 µM was determined as 63%.
Still for that read-out and setting: the same measure for `CC(C)c1cc(NC(=O)Nc2cccc3ccccc23)n(-c2cccc(C(C)(C)O)c2)n1` [Example 436, 1-{1-[3-(2-hydroxypropan-2-yl)phenyl]-3-isopropyl-1H-pyrazol-5-yl}-3-(naphthalen-1-yl)urea]: 41%.

The test is the same for the next values; noted with them: read-out: % Inhibition @ concentration, Table 3; at 10 uM.
As for `CC(C)(C)c1cc(NC(=O)Nc2cccc3cccnc23)n(-c2cccc(CCC(=O)O)c2)n1` [Example 367, 3-(3-{3-t-butyl-5-[3-(quinolin-8-yl)ureido]-1H-pyrazol-1-yl}phenyl)-propionic acid], the inhibition at 10 µM amounted to 85%.
On to `COc1cccc(-n2nc(C(C)(C)C)cc2NC(=O)Nc2cccc(N(C)C)c2)c1` [Example 324, 1-(3-t-butyl-1-(3-methoxyphenyl)-1H-pyrazol-5-yl)-3-(3-(dimethylamino)phenyl)urea], for which the inhibition at 10 µM is 40%.
As for `CC(C)(O)c1cccc(-n2nc(-c3ccccc3)cc2NC(=O)Nc2cccc3ccccc23)c1` [Example 432, 1-{1-[3-(2-hydroxypropan-2-yl)phenyl]-3-phenyl-1H-pyrazol-5-yl}-3-(naphthalen-1-yl)urea], the inhibition at 10 µM is 24%.
The same measure, in the same setting: with `COc1cccc(-n2nc(C(C)(C)C)cc2NC(=O)Nc2cccnc2)c1` [Example 328, 1-(3-t-butyl-1-(3-methoxyphenyl)-1H-pyrazol-5-yl)-3-(pyridin-3-yl)urea] the figure was 68%; with `Cc1cc(NC(=O)Nc2cccc(Cl)c2Cl)n(-c2ccc(CO)cc2)n1` [Example 450, 1-(2,3-dichlorophenyl)-3-{1-[4-(hydroxymethyl)phenyl]-3-methyl-1H pyrazol-5-yl)urea], 192%; with `COc1cccc(-n2nc(C)cc2NC(=O)Nc2cccc(Br)c2)c1` [Example 337, 1-(3-bromophenyl)-3-(1-(3-methoxyphenyl)-3-methyl-1H-pyrazol-5-yl)urea], 8%.
As for `O=C(O)CCc1cccc(-n2nc(C(F)(F)F)cc2NC(=O)Nc2ccc(Cl)cc2)c1` [Example 530, 3-(3-(5-(3-(4-chlorophenyl)ureido)-3-(trifluoromethyl)-1H-pyrazol-1-yl)phenyl)propanoic acid], the inhibition at 10 µM was found to be 83%.
With `COc1cccc(-n2nc(C(C)(C)C)cc2NC(=O)Nc2cccc(C(F)(F)F)c2)c1` [Example 315, 1-(3-t-butyl-1-(3-methoxyphenyl)-1H-pyrazol-5-yl)-3-(3-(trifluoromethyl)phenyl)urea], the inhibition at 10 µM is 54%.

Values taken from patent US20070191336A1 (priority 2003, published 2007).
